# Experiments:
# [1] = Amotosalen concentration post-UVA in FCV-spiked platelets, HPLC; type: physicochemical
# [2] = S-59 photoconversion in apheresis platelets in 100% plasma, 15 μM S-59, HPLC; type: physicochemical
# Description: Additional units were illuminated with the INT-100 device at ˜3.6 J/cm^2 for comparison or maintained as an untreated control.
# [3] = Residual amotosalen in whole-blood derived plasma, 50 μM, ~6.4 J/cm^2, HPLC; type: physicochemical
# Description: This pool and split format was repeated four times to generate four replicates.
# E. coli = assay: Amotosalen and UV light (265-385 nm LEDs) treatment of E. coli in plasma, six-well plates, colony forming unit assay; type: cell-based; settings: for Log reduction from S-59 / Log reduction total: ~3 J/cm^2, plasma
# Description: (§1) This system comprised single arrays facing (e.g., opposing) a platform positioned for the illumination of biological fluids placed on the platform (see e.g., FIG. 5). System controls provided for adjustment of the LEDs during treatment of the biological fluid samples, controlling both the timing and intensity of illumination by the LEDs to achieve a desired light UV light dose. Evaluation of photochemical conversion, photoproduct formation, pathogen inactivation, and plasma and/or platelet quality parameters are performed for each light source wavelength as described previously. In one study using the device, photochemical inactivation of various bacteria were tested for each of the above-referenced LEDs together with amotosalen. The bacteria included E. coli (Gram negative), S. epidermidis (Gram positive), and P. acnes (anaerobe). As there are known germicidal effects of ultraviolet light with wavelengths in the UVC and UVB range, the study was controlled to determine for each LED wavelength the total inactivation levels, as well as inactivation levels specifically resulting from the UV light (without added amotosalen) or the photochemical treatment process itself.
# P. acnes = assay: Amotosalen and UV light (265-385 nm LEDs) treatment of P. acnes in plasma, colony forming unit assay; type: cell-based; settings: 15 μM amotosalen, ~6.4 J/cm^2, plasma
# Description: as §1
compound,measurement,setting,value
"Cc1oc2c(C)c3oc(=O)cc(C)c3cc2c1COCCN [S-59, 3-(2-aminoethoxymethyl)-2,5,9-trimethylfuro[3,2-g]chromen-7-one]",S-59 post-UVA concentration,"[1]; 15 μM, 4 hr incubation, 340 nm ~3 J/cm^2",0.6 µM
same,S-59 post-UVA concentration,"[1]; 15 μM, 8 hr incubation, 340 nm ~3 J/cm^2",0.6 µM
same,S-59 post-UVA concentration,"[1]; 15 μM, 8 hr, 340 nm ~3 J/cm^2 Top Only",<1 µM
same,S-59 post-UVA concentration,"[1]; 15 μM, 8 hr, 340 nm ~3 J/cm^2 Top/Bottom",<1 µM
same,S-59 post-UVA concentration,"[1]; 15 μM, 24 hr incubation, 340 nm ~3 J/cm^2",0.6 µM
same,S-59 post-UVA concentration,"[1]; 15 μM, 24 hr, 340 nm ~3 J/cm^2 Top Only",<1 µM
same,S-59 post-UVA concentration,"[1]; 15 μM, 24 hr, 340 nm ~3 J/cm^2 Top/Bottom",<1 µM
same,S-59 post-UVA concentration,"[1]; 30 μM, 4 hr incubation, 340 nm ~3 J/cm^2",0.8 µM
same,S-59 post-UVA concentration,"[1]; 30 μM, 8 hr incubation, 340 nm ~3 J/cm^2",0.9 µM
same,S-59 post-UVA concentration,"[1]; 30 μM, 8 hr, 340 nm ~3 J/cm^2 Top Only",<1 µM
same,S-59 post-UVA concentration,"[1]; 30 μM, 8 hr, 340 nm ~3 J/cm^2 Top/Bottom",<1 µM
same,S-59 post-UVA concentration,"[1]; 30 μM, 24 hr incubation, 340 nm ~3 J/cm^2",0.8 µM
same,S-59 post-UVA concentration,"[1]; 30 μM, 24 hr, 340 nm ~3 J/cm^2 Top Only",<1 µM
same,S-59 post-UVA concentration,"[1]; 30 μM, 24 hr, 340 nm ~3 J/cm^2 Top/Bottom",<1 µM
same,S-59 post-UVA concentration,"[1]; 90 μM, 4 hr incubation, 340 nm ~3 J/cm^2",3.8 µM
same,S-59 post-UVA concentration,"[1]; 90 μM, 8 hr incubation, 340 nm ~3 J/cm^2",0.9 µM
same,S-59 post-UVA concentration,"[1]; 90 μM, 24 hr incubation, 340 nm ~3 J/cm^2",3.3 µM
same,S-59 post-UVA concentration,"[1]; 150 μM, 0 hr incubation, 340 nm, more than twice ~3 J/cm^2",2.1 µM
same,S-59 post-UVA concentration,"[1]; 150 μM, 0 hr, 340 nm Top Only",10.8 µM
same,S-59 post-UVA concentration,"[1]; 150 μM, 0 hr, 340 nm Top/Bottom",7.7 µM
same,S-59 concentration post-illumination,"[2]; 340 nm LED 1× (~3.6 J/cm^2), <LOQ",0.86 µM
same,S-59 concentration post-illumination,"[2]; 340 nm LED 2× (~7.2 J/cm^2), <LOQ",0.19 µM
same,S-59 concentration post-illumination,"[2]; 340 nm LED 3× (~10.8 J/cm^2), <LOQ",0.00 µM
same,S-59 concentration post-illumination,"[2]; INT-100, ~3.6 J/cm^2",4.11 µM
same,residual amotosalen concentration,[3]; 340 nm device,4.65 µM
same,residual amotosalen concentration,[3]; INT-100 device,17.06 µM
same,Log reduction from S-59,"E. coli; 15 μM amotosalen, 265 nm",0 log
same,Log reduction total,"E. coli; 15 μM amotosalen, 265 nm",4.52 log
same,Log reduction from S-59,"E. coli; 15 μM amotosalen, 280 nm",0 log
same,Log reduction total,"E. coli; 15 μM amotosalen, 280 nm",4.52 log
same,Log reduction from S-59,"E. coli; 15 μM amotosalen, 310 nm",1.15 log
same,Log reduction total,"E. coli; 15 μM amotosalen, 310 nm",4.52 log
same,Log reduction from S-59,"E. coli; 15 μM amotosalen, 325 nm",3.81 log
same,Log reduction total,"E. coli; 15 μM amotosalen, 325 nm",4.52 log
same,Log reduction from S-59,"E. coli; 15 μM amotosalen, 340 nm",2.94 log
same,Log reduction total,"E. coli; 15 μM amotosalen, 340 nm",4.52 log
same,Log reduction from S-59,"E. coli; 15 μM amotosalen, 365 nm",2.76 log
same,Log reduction total,"E. coli; 15 μM amotosalen, 365 nm",4.52 log
same,Log reduction from S-59,"E. coli; 15 μM amotosalen, 385 nm",0.49 log
same,Log reduction total,"E. coli; 15 μM amotosalen, 385 nm",1.5 log
same,Log reduction from S-59,"E. coli; 150 μM amotosalen, 265 nm",0.54 log
same,Log reduction total,"E. coli; 150 μM amotosalen, 265 nm",5.01 log
same,Log reduction from S-59,"E. coli; 150 μM amotosalen, 280 nm",0.59 log
same,Log reduction total,"E. coli; 150 μM amotosalen, 280 nm",5.38 log
same,Log reduction from S-59,"E. coli; 150 μM amotosalen, 310 nm",2.29 log
same,Log reduction total,"E. coli; 150 μM amotosalen, 310 nm",6.23 log
same,Log reduction from S-59,"E. coli; 150 μM amotosalen, 325 nm",5.36 log
same,Log reduction total,"E. coli; 150 μM amotosalen, 325 nm",5.70 log
same,Log reduction from S-59,"E. coli; 150 μM amotosalen, 340 nm",4.93 log
same,Log reduction total,"E. coli; 150 μM amotosalen, 340 nm",5.64 log
same,Log reduction from S-59,"E. coli; 150 μM amotosalen, 365 nm",4.90 log
same,Log reduction total,"E. coli; 150 μM amotosalen, 365 nm",5.30 log
same,Log reduction from S-59,"E. coli; 150 μM amotosalen, 385 nm",4.34 log
same,Log reduction total,"E. coli; 150 μM amotosalen, 385 nm",4.95 log
same,photochemical inactivation,"E. coli; summary for bacteria of Example 8, amotosalen+325 nm and amotosalen+340 nm illumination",greater than 4 logs
same,Log reduction from S-59,P. acnes; 265 nm,1.60 log
same,Log reduction total,P. acnes; 265 nm,6.03 log
same,Log reduction from S-59,P. acnes; 280 nm,0.71 log
same,Log reduction total,P. acnes; 280 nm,1.09 log
same,Log reduction from S-59,P. acnes; 310 nm,5.67 log
same,Log reduction total,P. acnes; 310 nm,6.99 log
same,Log reduction from S-59,P. acnes; 325 nm,6.54 log
same,Log reduction total,P. acnes; 325 nm,6.69 log
